Entries after “also recorded” stand apart in the source; their conditions may differ. One block for each compound: values may come before it.
Experiments:
[1] = target: T1, cardiac late sodium current (INa) (Homo sapiens, UniProt Q14524); test: Inhibition of the cardiac late sodium current; type: biochemical
[2] = target: T1, cardiac late sodium current (INa); conditions: see US 2013/0012492; cited from earlier work
[3] = tested on: cytochrome P450 (CYP) enzymes; test: Cytochrome P450 inhibition; type: in vitro ADME
[4] = target: P-glycoproteins (Homo sapiens, UniProt P08183); test: P-glycoprotein inhibition; type: in vitro ADME
[5] = tested on: model of long QT syndrome-3 (LQT3); test: Model of LQT-3: action potential duration and beat-to-beat variability
[6] = tested on: patients with LQT3; test: Phase 1 clinical study in patients with LQT3 (QTc, ECHO, tolerability); type: in vivo, human; conditions: for Tolerability: Phase 1; for Change in QTc from baseline: all dose levels (10-60 mg single, multiple dose cohort)
Procedure: In an ongoing Phase 1, effect of oral Compound (I) on the QTc interval in subjects with LQT3 was evaluated. Subjects with LQT3 identified from the LQTS registry with proven mutations in the cardiac sodium channel and a QTc >460 msec will be enrolled. Four sequential single dose cohorts and 1 multiple dose cohort were enrolled and received a single dose of Compound (I) (Cohort 1: 10 mg; Cohort 2: 20 mg; Cohort 3: 30 mg; Cohort-4: 60 mg) or multiple doses of Compound (I) (Cohort 5: Day 1—20 mg, Day 2—40 mg, Days 3-7—6 mg once daily).
Ten subjects were enrolled. Among these 10 subjects, 3 subjects received single oral dose of Compound (I), 5 subjects received Compound (I) at 2 different dose periods, and 2 subjects received Compound (I) at 3 different dose periods. […] Changes in QTc interval from baseline (Day −1 for Cohorts 1-4; average of Day −2 and Day −1 for Cohort 5) were analyzed in 2 different ways: 1) changes in average daytime QTc during 12 hours postdose (QTc interval AUC0-12/12) and 2) maximal time-matched QTc changes within 12 hours postdose. […] In the multiple dose cohort (shown in FIG. 5-6), the effect of Compound (I) on QTc shortening was dose-dependent with a larger QTc shortening after 40 mg on Day 2 compared to 20 mg on Day 1. More importantly, the QTc shortening was sustained during the maintenance doses of 6 mg from Days 3-7.
In addition, effect of Compound (I) on cardiac function was assessed by ECHO. For the single dose cohorts, echocardiography (ECHO) was performed at baseline (Day −1) and at 3 and 6 hours after the single oral dose of Compound (I) on Day 1. For the multiple dose cohort (Cohort 5), ECHO was performed at baseline (Day −1), at 3 and 6 hours after the single oral dose of Compound (I) on Day 1, and at 3 hours after dose on Day 4 and Day 7.

[7] = PK after single oral dose in patients with LQT-3; type: in vivo, human
Text: This is similar to the PK profile of Compound 1 in healthy volunteers.

[8] = tested on: rabbit isolated heart; test: Rabbit isolated heart, E-4031 model of LQT-2 and drug-induced QT prolongation
Text: E-4031 is an inhibitor of IKr. […] Hearts were paced at a rate of 1 Hz.
The use of rabbits (New Zealand White adult females, 2-4 kg; Western Oregon Rabbit Company, Philomath, Oreg.) in this investigation conformed to the “Guide for the Care and Use of Laboratory Animals” (NIH publication No. 85-23, revised 1996) and was approved by the Institutional Animal Care and Use Committees of Gilead Sciences. Hearts were isolated and perfused by the method of Langendorff as previously described (Wu et al., 2009). Briefly, the atrioventricular nodal area was thermally ablated to produce heart block, and hearts were paced at a rate of 1 Hz. Monophasic action potentials (MAPs) from the left ventricular epicardium and pseudo 12-lead electrocardiograms (ECGs) were recorded. […] The duration of the MAP at the level at which repolarization is 90% complete (MAPD90) was measured.

[9] = tested on: rabbit isolated wedge preparation; test: Rabbit isolated left ventricular wedge preparation, E-4031 model of LQT-2; conditions: 60 nM E-4031, 300 nM Compound 1, cycle lengths 500, 1000 and 2000 msec
Procedure: E-4031 is an inhibitor of IKr.
Rabbit isolated left ventricular wedge was prepared as previously described (Yan et al, 1996, 2009). Briefly, the chest was opened via a left thoracotomy, and the heart was excised, placed in a cardioplegic solution consisting of cold (4° C.) Tyrode's solution containing 20 mmol/L […], and transported to a dissection tray. Transmural wedges with dimensions of approximately 1×1×0.8 or 0.8×0.8×0.4 cm^3 were dissected from the left ventricle. The tissue was cannulated via a small (diameter, ≈100 μm) branch of the left anterior descending artery or another coronary artery and perfused with cardioplegic solution. The total period of time from excision of the heart to cannulation and perfusion of the artery was less than 4 minutes. Unperfused tissue was carefully removed with a razor blade. The preparation was then placed in a tissue bath and arterially perfused with Tyrode's solution of the following composition (mmol/L): NaCl 129, KCl 4, NaH2PO4 0.9, NaHCO3 20, Ca 1.8, MgSO4 0.5, glucose 5.5, and insulin 1 U/L, buffered with 95% O2/5% CO2 (36±1° C.). The perfusate was delivered to the artery by a roller pump (Cole Panner Instrument Co). Perfusion pressure was monitored with a pressure transducer (World Precision Instruments, Inc) and maintained between 40 and 50 mm Hg by adjustment of the perfusion flow rate. The preparations remained immersed in the arterial perfusate, which was allowed to rise to a level 2 to 3 mm above the tissue surface (36±1° C.).

[10] = LQT3 patients, listed as Compound (I)
[11] = after single dose administration

T1 sequence (Q14524 whole entry): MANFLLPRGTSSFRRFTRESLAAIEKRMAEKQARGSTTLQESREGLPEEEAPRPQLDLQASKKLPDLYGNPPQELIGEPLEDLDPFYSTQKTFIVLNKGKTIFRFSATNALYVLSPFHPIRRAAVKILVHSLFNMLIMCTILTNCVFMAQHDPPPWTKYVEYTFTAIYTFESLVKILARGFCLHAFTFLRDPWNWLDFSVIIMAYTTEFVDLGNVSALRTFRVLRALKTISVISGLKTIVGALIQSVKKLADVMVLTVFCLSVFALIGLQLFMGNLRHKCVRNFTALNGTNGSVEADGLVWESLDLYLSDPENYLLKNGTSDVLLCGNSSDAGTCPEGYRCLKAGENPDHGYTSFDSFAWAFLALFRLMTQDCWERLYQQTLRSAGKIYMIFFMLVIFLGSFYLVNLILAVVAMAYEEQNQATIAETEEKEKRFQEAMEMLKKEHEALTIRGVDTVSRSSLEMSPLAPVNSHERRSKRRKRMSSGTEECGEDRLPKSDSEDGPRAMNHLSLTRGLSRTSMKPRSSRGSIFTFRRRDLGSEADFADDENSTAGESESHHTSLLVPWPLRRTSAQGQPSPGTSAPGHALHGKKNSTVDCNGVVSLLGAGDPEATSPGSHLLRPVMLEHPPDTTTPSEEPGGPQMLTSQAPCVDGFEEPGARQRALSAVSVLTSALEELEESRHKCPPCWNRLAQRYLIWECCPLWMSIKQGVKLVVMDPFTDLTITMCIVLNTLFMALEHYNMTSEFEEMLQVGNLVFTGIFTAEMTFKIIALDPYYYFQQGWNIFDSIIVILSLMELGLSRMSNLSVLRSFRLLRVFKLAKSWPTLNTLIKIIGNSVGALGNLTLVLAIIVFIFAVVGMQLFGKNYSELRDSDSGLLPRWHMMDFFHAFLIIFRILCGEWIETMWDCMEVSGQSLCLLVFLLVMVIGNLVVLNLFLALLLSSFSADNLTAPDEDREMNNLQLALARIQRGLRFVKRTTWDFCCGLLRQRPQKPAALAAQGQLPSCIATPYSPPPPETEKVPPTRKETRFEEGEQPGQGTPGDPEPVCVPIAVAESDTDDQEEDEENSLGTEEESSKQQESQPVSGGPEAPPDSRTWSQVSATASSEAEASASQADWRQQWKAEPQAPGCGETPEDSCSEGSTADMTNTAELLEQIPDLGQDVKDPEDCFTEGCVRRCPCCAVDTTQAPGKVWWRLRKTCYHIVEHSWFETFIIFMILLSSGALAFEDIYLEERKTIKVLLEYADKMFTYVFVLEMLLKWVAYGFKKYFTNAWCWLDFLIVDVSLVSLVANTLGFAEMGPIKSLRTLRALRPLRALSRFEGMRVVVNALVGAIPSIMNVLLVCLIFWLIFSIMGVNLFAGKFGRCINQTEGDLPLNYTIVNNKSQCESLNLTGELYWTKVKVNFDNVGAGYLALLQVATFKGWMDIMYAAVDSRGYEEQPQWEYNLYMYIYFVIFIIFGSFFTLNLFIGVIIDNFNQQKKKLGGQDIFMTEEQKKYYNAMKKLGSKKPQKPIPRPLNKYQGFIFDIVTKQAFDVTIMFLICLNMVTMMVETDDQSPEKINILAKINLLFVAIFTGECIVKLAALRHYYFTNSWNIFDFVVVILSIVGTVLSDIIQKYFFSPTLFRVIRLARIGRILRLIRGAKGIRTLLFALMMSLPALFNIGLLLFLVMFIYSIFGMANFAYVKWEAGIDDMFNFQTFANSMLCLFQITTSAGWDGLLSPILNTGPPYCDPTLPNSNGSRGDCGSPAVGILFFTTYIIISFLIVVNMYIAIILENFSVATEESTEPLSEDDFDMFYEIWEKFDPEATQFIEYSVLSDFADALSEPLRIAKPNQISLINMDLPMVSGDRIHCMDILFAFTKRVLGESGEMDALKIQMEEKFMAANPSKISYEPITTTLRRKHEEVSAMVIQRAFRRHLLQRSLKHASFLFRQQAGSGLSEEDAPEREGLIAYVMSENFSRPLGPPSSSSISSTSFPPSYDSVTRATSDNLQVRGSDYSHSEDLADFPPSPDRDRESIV
Sequence of P-glycoproteins (P08183 whole entry): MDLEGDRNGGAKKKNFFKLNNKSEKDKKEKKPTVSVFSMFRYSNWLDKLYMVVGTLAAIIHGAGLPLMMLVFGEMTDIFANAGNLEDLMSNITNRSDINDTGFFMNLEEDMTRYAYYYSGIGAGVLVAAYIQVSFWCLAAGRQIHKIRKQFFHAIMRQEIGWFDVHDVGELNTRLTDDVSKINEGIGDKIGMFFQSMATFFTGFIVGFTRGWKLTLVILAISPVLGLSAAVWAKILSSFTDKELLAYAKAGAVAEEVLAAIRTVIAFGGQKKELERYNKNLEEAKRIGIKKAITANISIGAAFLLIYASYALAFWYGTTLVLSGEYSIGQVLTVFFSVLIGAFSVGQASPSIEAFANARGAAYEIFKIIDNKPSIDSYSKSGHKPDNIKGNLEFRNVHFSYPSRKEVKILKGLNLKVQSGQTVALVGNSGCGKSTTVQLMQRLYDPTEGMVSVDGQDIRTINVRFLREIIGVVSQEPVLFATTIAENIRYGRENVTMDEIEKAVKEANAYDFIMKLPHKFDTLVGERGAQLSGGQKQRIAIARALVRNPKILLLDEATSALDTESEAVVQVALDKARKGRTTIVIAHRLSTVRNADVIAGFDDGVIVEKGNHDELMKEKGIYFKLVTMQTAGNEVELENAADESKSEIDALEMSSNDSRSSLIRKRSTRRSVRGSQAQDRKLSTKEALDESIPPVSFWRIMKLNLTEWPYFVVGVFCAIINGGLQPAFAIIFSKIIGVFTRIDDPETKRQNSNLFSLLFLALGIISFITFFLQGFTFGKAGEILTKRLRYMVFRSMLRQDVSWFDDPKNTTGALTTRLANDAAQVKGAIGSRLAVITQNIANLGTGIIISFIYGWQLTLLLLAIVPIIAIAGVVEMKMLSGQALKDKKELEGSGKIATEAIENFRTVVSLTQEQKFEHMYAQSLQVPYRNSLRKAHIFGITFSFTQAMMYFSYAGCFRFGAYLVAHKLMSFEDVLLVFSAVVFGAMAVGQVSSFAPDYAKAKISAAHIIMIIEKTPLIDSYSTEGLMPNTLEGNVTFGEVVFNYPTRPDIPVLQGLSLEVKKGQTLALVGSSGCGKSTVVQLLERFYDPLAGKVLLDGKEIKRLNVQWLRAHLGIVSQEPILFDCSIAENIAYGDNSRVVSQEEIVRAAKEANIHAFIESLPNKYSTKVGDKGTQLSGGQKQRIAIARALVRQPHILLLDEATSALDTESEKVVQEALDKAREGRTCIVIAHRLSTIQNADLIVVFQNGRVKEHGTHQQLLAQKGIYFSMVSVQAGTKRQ

- Inhibition of the cardiac late sodium current (INa) [1]: potent and selective inhibitors
SMILES: O=C1c2cc(-c3ccc(C(F)(F)F)cc3)ccc2OCCN1Cc1ncccn1 [Compound 2, 4-(pyrimidin-2-ylmethyl)-7-(4-(trifluoromethyl)phenyl)-3,4-dihydrobenzo[f][1,4]oxazepin-5(2H)-one]
- Late sodium channel inhibition [2]: potent late sodium channel inhibitors

- Inhibition of the cardiac late sodium current (INa) [1]: potent and selective inhibitors
- Inhibition of cytochrome P450 (CYP) enzymes [3]: does not inhibit
- Inhibition of P-glycoproteins [4]: does not inhibit
- Absorption [7, 11]: fast absorption
- Clearance [7, 11]: low clearance
- Decline of concentration [7, 11]: biphasic decline
- Half-life [7, 11]: long half-life
- PK profile in LQT3 patients compared with healthy volunteers ([7]; single oral dose, FIG. 4): similar
SMILES: O=C1c2cc(-c3ccc(OC(F)(F)F)cc3)ccc2OCCN1Cc1ncccn1 [Compound 1, 4-(pyrimidin-2-ylmethyl)-7-(4-(trifluoromethoxy)phenyl)-3,4-dihydrobenzo[f][1,4]oxazepin-5(2H)-one]
- Beat-to-beat variability ([5]; model of LQT3, FIG. 2): reduction
- Action potential duration (APD) ([5]; model of LQT-3, FIG. 1): shortening
- Efficacy (QTc shortening or T-wave morphology) ([6]; 10 mg, three patients with inherited LQT3): preliminary efficacy
- Dependence of QTc shortening on mutations or concomitant use of b-blockers ([6]; LQT3 patients): independent
- Tolerability ([6]; LQT3 patients): well tolerated
- Tolerability [6, 10]: well tolerated; also recorded: well-tolerated
- Change in QTc from baseline ([6]; LQT3 patients): changes in QTc from baseline
- Change in QTc from baseline [6, 10]: Shortening of QTc was observed at all dose levels; also recorded: shortens QTc interval
- Left ventricular (LV) functions / cardiac function assessed by ECHO ([6]; LQT3 patients, single and multiple dose cohorts, listed as Compound (I)): did not affect; also recorded: no effect
- Treatment of long QT syndrome in humans, specifically LQT3 ([6]; human, in vivo): effective
- Persistence of QTc shortening ([6]; maintenance doses of 6 mg from Days 3-7): sustained
- Dose dependence of QTc shortening ([6]; multiple dose cohort, 40 mg on Day 2 compared to 20 mg on Day 1): dose-dependent
- QTc shortening ([6]; ten LQT-3 patients, single dose 10 mg, 20 mg, 30 mg or 60 mg): 20-100 milliseconds
- Prolonged monophasic action potential (MAP) ([8]; 60 nM E-4031, 100 and 300 nM Compound 1, paced at 1 Hz): shortens
- Torsades de pointes (TdP) ventricular tachyarrhythmia ([8]; induced by 60 nM E-4031, paced at 1 Hz): suppresses
- Prolonged action potential duration (APD) [9]: shortens
- QT interval [9]: shortens
- Tpeak to Tend (TpTe) [9]: shortens
- Late sodium channel inhibition [2]: potent late sodium channel inhibitors

Source: patent US9126989B2, “Compound and methods for treating long QT syndrome” (Gilead Sciences, Inc., priority 2013, dated 2015)
